Earlier results in EP0134290A1, “Constant release rate solid dosage theophyllineformulation” (VEREX LABORATORIES, INC., priority 1983, dated 1985).

Conditions: similar dose of regular theophylline; published; spread +- 2.1

For `Cn1c(=O)c2[nH]cnc2n(C)c1=O` [regular theophylline, theophylline], the excretion half life is listed as 9.0 h.
